Tested on: ApoA-I mRNA
Experiment: Quantification of ApoA-I mRNA in HepG2 cells (real-time PCR)
Type: cell-based
Set-up: key: Active: An active compound was defined as one that caused a ≧20% increase in ApoA-I mRNA at a concentration less than or equal to 100 μM
Details: fold induction relative to DMSO control, concentration less than or equal to 100 μM
Experimental: In this example, ApoA-I mRNA in tissue culture cells was quantitated to measure the transcriptional up-regulation of ApoA-I when treated with a compound of the invention.
HepG2 cells (approximately 2×10^5 per well) were placed in a 24-well plate in approximately 400 μL MEM, supplemented with 0.5% (v/v) FBS, 24 h before addition of the compound of interest. At time of harvesting, the spent media was removed from the HepG2 cells and immediately placed on ice (for immediate use) or at −80° C. (for future use) in ApoA-I and albumin ELISAs. The cells remaining in the plate wells were rinsed in 200 μL PBS. PBS was carefully removed to avoid removing any loosely attached cells.
Once the PBS was removed, 85 μL cell lysis solution was added the cells in each well and incubated for 5-10 minutes at room temperature, to allow for complete cell lysis and detachment. mRNA was then prepared using the “mRNA Catcher PLUS plate” from Invitrogen, according to the protocol supplied. After the last wash, as much wash buffer as possible was aspirated without allowing the wells to dry. Elution Buffer (E3, 80 μL) was then added to each well. mRNA was then eluted by incubating the mRNA Catcher PLUS plate with Elution Buffer for 5 minutes at 68° C. and then immediately placing the plate on ice.
The eluted mRNA isolated was then used in a one-step real-time […] reaction, using components of the Ultra Sense Kit together with Applied Biosystems primer-probe mixes. Real-time PCR data was analyzed, using the Ct values, to determine the fold induction of each unknown sample, relative to the control (that is, relative to the control for each independent DMSO concentration).
An active compound was defined as one that caused a ≧20% increase in ApoA-I mRNA at a concentration less than or equal to 100 μM.

Structure (SMILES)	Effect on ApoA-I mRNA levels
O=c1c2ccccc2nc(-c2cncc(Br)c2)n1-c1ccc(Cl)cc1 [Example 58, 2-(5-bromopyridin-3-yl)-3-(4-chlorophenyl)quinazolin-4(3H)-one]	Active
Cc1ccc(-c2nc3ccccc3c(=O)n2-c2ccc(NS(C)(=O)=O)cc2)cn1 [Example 66, N-(4-(2-(6-methylpyridin-3-yl)-4-oxoquinazolin-3(4H)-yl)phenyl)methanesulfonamide]	Active
CCC(C)c1ccc(-n2c(-c3ccc4nc(CO)[nH]c4c3)nc3ccccc3c2=O)cc1 (stereo not drawn) [Example 75, 3-(4-sec-butylphenyl)-2-(2-(hydroxymethyl)-1H-benzo[d]imidazol-6-yl)quinazolin-4(3H)-one]	Active
O=c1c2ccccc2nc(-c2ccc(Br)nc2)n1-c1ccc(Cl)cc1 [Example 41, 2-(6-bromopyridin-3-yl)-3-(4-chlorophenyl)quinazolin-4(3H)-one]	Active
CC(C)c1ccc(-n2c(-c3ccc4[nH]ccc4c3)nc3ccccc3c2=O)cc1 [Example 77, 2-(1H-indol-5-yl)-3-(4-isopropylphenyl)quinazolin-4(3H)-one]	Active
CCC(C)c1ccc(-n2c(-c3ccc(-c4ccccc4)nc3)nc3ccccc3c2=O)cc1 (stereo not drawn) [Example 55, 3-(4-sec-butylphenyl)-2-(6-phenylpyridin-3-yl)quinazolin-4(3H)-one]	Active
CCC(C)c1ccc(-n2c(-c3cc(C)c(OCCO)c(C)c3)nc3ccc(F)cc3c2=O)cc1 (stereo not drawn) [Example 9, 3-(4-sec-butylphenyl)-6-fluoro-2-(4-(2-hydroxyethoxy)-3,5-dimethylphenyl)quinazolin-4(3H)-one]	Active
CCC(C)c1ccc(-n2c(-c3cncc(N(CC)CC)c3)nc3ccccc3c2=O)cc1 (stereo not drawn) [Example 59, 3-(4-sec-butylphenyl)-2-(5-(diethylamino)pyridin-3-yl)quinazolin-4(3H)-one]	Active
CCC(C)c1ccc(-n2c(-c3ccc(Oc4ccccc4)nc3)nc3ccccc3c2=O)cc1 (stereo not drawn) [Example 52, 3-(4-sec-butylphenyl)-2-(6-phenoxypyridin-3-yl)quinazolin-4(3H)-one]	Active
Cc1cc(-c2nc3ccccc3c(=O)n2-c2ccc(C(F)(F)F)cc2)cc(C)c1OCCO [Example 11, 2-(4-(2-hydroxyethoxy)-3,5-dimethylphenyl)-3-(4-(trifluoromethyl)phenyl)quinazolin-4(3H)-one]	Active
Cc1ccc(-c2nc3ccccc3c(=O)n2-c2ccc(Cl)cc2)cn1 [Example 47, 3-(4-chlorophenyl)-2-(6-methylpyridin-3-yl)quinazolin-4(3H)-one]	Active
CCC(C)c1ccc(-n2c(-c3ccc(CN4CCOCC4)nc3)nc3ccccc3c2=O)cc1 (stereo not drawn) [Example 67, 3-(4-sec-butylphenyl)-2-(6-(morpholinomethyl)pyridin-3-yl)quinazolin-4(3H)-one]	Active
Cc1cc(-c2nc3ccccc3c(=O)n2-c2ccc(Cl)cc2)ccc1OCCO [Example 34, 3-(4-chlorophenyl)-2-(4-(2-hydroxyethoxy)-3-methylphenyl)quinazolin-4(3H)-one]	Active
CCC(C)c1ccc(-n2c(-c3ccc4cc[nH]c4c3)nc3ccccc3c2=O)cc1 (stereo not drawn) [Example 87, 3-(4-sec-butylphenyl)-2-(1H-indol-6-yl)quinazolin-4(3H)-one]	Active
O=c1c2ccccc2nc(-c2ccc3cc[nH]c3c2)n1-c1ccc(Cl)cc1 [Example 85, 3-(4-chlorophenyl)-2-(1H-indol-6-yl)quinazolin-4(3H)-one]	Active
CCC(C)c1ccc(-n2c(-c3ccc(CO)nc3)nc3ccccc3c2=O)cc1 (stereo not drawn) [Example 63, 3-(4-sec-butylphenyl)-2-(6-(hydroxymethyl)pyridin-3-yl)quinazolin-4(3H)-one]	Active
CCC(C)c1ccc(-n2c(-c3cncc(-c4ccccc4)c3)nc3ccccc3c2=O)cc1 (stereo not drawn) [Example 56, 3-(4-sec-butylphenyl)-2-(5-phenylpyridin-3-yl)quinazolin-4(3H)-one]	Active
COC(=O)c1ccc(-n2c(-c3cc(C)c(OCCO)c(C)c3)nc3ccccc3c2=O)cc1 [Example 25, methyl 4-(2-(4-(2-hydroxyethoxy)-3,5-dimethylphenyl)-4-oxoquinazolin-3(4H)-yl)benzoate]	Active

Structure (SMILES)	Effect on ApoA-I mRNA levels
Cc1cc(-c2nc3ccccc3c(=O)n2-c2ccc(C(C)(C)C)cc2)cc(C)c1OCCO [Example 22, 3-(4-tert-butylphenyl)-2-(4-(2-hydroxyethoxy)-3,5-dimethylphenyl)quinazolin-4(3H)-one]	Active
CCC(C)c1ccc(-n2c(-c3cccc4[nH]ccc34)nc3ccccc3c2=O)cc1 (stereo not drawn) [Example 90, 3-(4-sec-butylphenyl)-2-(1H-indol-4-yl)quinazolin-4(3H)-one]	Active
O=c1c2ccccc2nc(-c2cnc3c(ccn3S(=O)(=O)c3ccccc3)c2)n1-c1ccc(Cl)cc1 [Example 81, 3-(4-chlorophenyl)-2-(1-(phenylsulfonyl)-1H-pyrrolo[2,3-b]pyridin-5-yl)quinazolin-4(3H)-one]	Active
Cc1cc(-c2nc3ccccc3c(=O)n2-c2ccc(NC=O)cc2)cc(C)c1OCCO [Example 27, N-(4-(2-(4-(2-hydroxyethoxy)-3,5-dimethylphenyl)-4-oxoquinazolin-3(4H)-yl)phenyl)formamide]	Active
Cn1ccc2cc(-c3nc4ccccc4c(=O)n3-c3ccc(Cl)cc3)ccc21 [Example 83, 3-(4-chlorophenyl)-2-(1-methyl-1H-indol-5-yl)quinazolin-4(3H)-one]	Active
Cc1ccc(-c2nc3ccccc3c(=O)n2-c2ccc(C3CC3)cc2)cn1 [Example 68, 3-(4-cyclopropylphenyl)-2-(6-methylpyridin-3-yl)quinazolin-4(3H)-one]	Active
CCN(CC)c1ccc(-c2nc3ccccc3c(=O)n2-c2ccc(Cl)cc2)cn1 [Example 43, 3-(4-chlorophenyl)-2-(6-(diethylamino)pyridin-3-yl)quinazolin-4(3H)-one]	Active
O=c1c2ccccc2nc(-c2ccc(C(F)(F)F)nc2)n1-c1ccc(Cl)cc1 [Example 53, 3-(4-chlorophenyl)-2-(6-(trifluoromethyl)pyridin-3-yl)quinazolin-4(3H)-one]	Active
O=c1c2ccccc2nc(-c2ccc(Oc3ccccc3)nc2)n1-c1ccc(Cl)cc1 [Example 50, 3-(4-chlorophenyl)-2-(6-phenoxypyridin-3-yl)quinazolin-4(3H)-one]	Active
Cc1cc(-c2nc3ccccc3c(=O)n2-c2ccc(N3CCOCC3)cc2)cc(C)c1OCCO [Example 21, 2-(4-(2-hydroxyethoxy)-3,5-dimethylphenyl)-3-(4-morpholinophenyl)quinazolin-4(3H)-one]	Active
O=c1c2ccccc2nc(-c2ccc3[nH]ccc3c2)n1-c1ccc(Cl)cc1 [Example 73, 3-(4-chlorophenyl)-2-(1H-indol-5-yl)quinazolin-4(3H)-one]	Active
Cc1cc(-c2nc3ccccc3c(=O)n2-c2ccc(NS(=O)(=O)C(C)C)cc2)cc(C)c1OCCO [Example 31, N-(4-(2-(4-(2-hydroxyethoxy)-3,5-dimethylphenyl)-4-oxoquinazolin-3(4H)-yl)phenyl)propane-2-sulfonamide]	Active
O=c1c2ccccc2nc(-c2ccc3[nH]ccc3c2)n1-c1ccc(C2CCCC2)cc1 [Example 84, 3-(4-cyclopentylphenyl)-2-(1H-indol-5-yl)quinazolin-4(3H)-one]	Active
CCC(C)c1ccc(-n2c(-c3cc(C)c(OCCO)c(C)c3)nc3ccccc3c2=O)cc1 (stereo not drawn) [1 and 2, 3-(4-sec-butylphenyl)-2-(4-(2-hydroxyethoxy)-3,5-dimethylphenyl)quinazolin-4(3H)-one]	Active
O=c1c2ccccc2nc(-c2cnc3ccccc3c2)n1-c1ccc(Cl)cc1 [Example 36, 3-(4-chlorophenyl)-2-(quinolin-3-yl)quinazolin-4(3H)-one]	Active
CCC(C)c1ccc(-n2c(-c3cccc4cc[nH]c34)nc3ccccc3c2=O)cc1 (stereo not drawn) [Example 88, 3-(4-sec-butylphenyl)-2-(1H-indol-7-yl)quinazolin-4(3H)-one]	Active
O=c1c2ccccc2nc(-c2cccc3cc[nH]c23)n1-c1ccc(Cl)cc1 [Example 86, 3-(4-chlorophenyl)-2-(1H-indol-7-yl)quinazolin-4(3H)-one]	Active
O=c1c2ccccc2nc(-c2cccc3[nH]ccc23)n1-c1ccc(Cl)cc1 [Example 89, 3-(4-chlorophenyl)-2-(1H-indol-4-yl)quinazolin-4(3H)-one]	Active
